± gives the expanded uncertainty stated by the source.
Legend:
[1] = refractive index (Na D-line) (dimensionless); conditions: 313.15 K; 101.33 kPa; Liquid; refractometer
[2] = 313.15 K; 101.33 kPa; Liquid; Vibrating tube method

refractive index [1] | mass density [2] | SMILES
1.3754 ± 0.0001 | 952.43 ± 0.08 kg/m3 | CCOC(=O)OCC [diethyl carbonate]
1.359 ± 0.0001 | 1043.19 ± 0.08 kg/m3 | COC(=O)OC [dimethyl carbonate]
